Read-outs that look alike come from different tables or passages of the source.
Legend:
[1] = test system: IFN-α production in human PBMCs; assay: Induction of IFN-α in human PBMCs (ELISA); assay type: cell-based; conditions: PBMC, 24 h, read-out: PBMC assay IFNa EC50
Experimental: In this example, the induction activity of the compounds of the present application on human PBMCs for TNF-α and IFN-α production was assessed in human PBMCs (human peripheral blood mononuclear cells). The human PBMCs were purchased from Shanghai Saily Biotechnology Co., Ltd. (Cat. No. XFB—HP100B). PBMC cells were treated with the compounds. The compounds of the present application are diluted in DMSO, for example, to about 15 mM. The reference compound was added to the plates in sequence after diluted to 5 mg/mL. The compounds were serially 3- or 4-fold diluted to 8 concentrations and added to plates in duplicate (Table 2-1 for serial 3-fold dilutions and Table 2-2 for serial 4-fold dilutions). For the negative control wells, DMSO was added at 0.4 μL/well, and a 5 mg/mL reference compound solution was added to the positive control wells at 0.4 μL/well. The final concentration of DMSO was 0.2%. Frozen human PBMCs in cryopreservation tubes were quickly thawed in a 37° C. water bath and transferred into 50-mL centrifuge tubes. Prewarmed RPMI1640 medium was gradually added and the mixture was well mixed and centrifuged for 15 min before the supernatant was discarded. The cells were resuspended in a culture medium and counted. The cell suspension was adjusted to 2.5×10^6 cells/mL with the culture medium. Diluted cells were added at 200 μL/500,000 cells/well in 96-well plates containing the compounds. The cell plates were incubated at 37° C./5% CO2 for 24 h.
The plate was washed 4 times, then the detection antibody was added. […] The plate was washed 4 additional times, then the enzyme was added. […] Termination of reaction: The reaction was terminated by quickly adding the stop solution at 100 μL/well. Plate reading: The reading at wavelength 450 nm was detected by an M2e instrument within 10 min after the termination.
Compound activity data analysis: The OD450 values were converted to TNF-α and IFN-α contents by GraphPad Prism software analysis and fitted to give dose-response curves of the compounds. The EC50 values for the compounds were calculated, where the Emax values are the maximal values for TNF-α and IFN-α.

[2] = target: T1, hTLR7 (human Toll-like receptor 7) (Homo sapiens, UniProt Q9NYK1); assay: HEK-Blue hTLR7 reporter assay (QUANTI-Blue, OD650); assay type: cell-based; conditions: HEK-Blue hTLR7 cells, 24 h, read-out: Reporter assay TLR7 EC50
T1 construct: host or cells: HEK-Blue hTLR7 (HEK293-derived reporter cells)
T1 sequence (Q9NYK1 27-1049): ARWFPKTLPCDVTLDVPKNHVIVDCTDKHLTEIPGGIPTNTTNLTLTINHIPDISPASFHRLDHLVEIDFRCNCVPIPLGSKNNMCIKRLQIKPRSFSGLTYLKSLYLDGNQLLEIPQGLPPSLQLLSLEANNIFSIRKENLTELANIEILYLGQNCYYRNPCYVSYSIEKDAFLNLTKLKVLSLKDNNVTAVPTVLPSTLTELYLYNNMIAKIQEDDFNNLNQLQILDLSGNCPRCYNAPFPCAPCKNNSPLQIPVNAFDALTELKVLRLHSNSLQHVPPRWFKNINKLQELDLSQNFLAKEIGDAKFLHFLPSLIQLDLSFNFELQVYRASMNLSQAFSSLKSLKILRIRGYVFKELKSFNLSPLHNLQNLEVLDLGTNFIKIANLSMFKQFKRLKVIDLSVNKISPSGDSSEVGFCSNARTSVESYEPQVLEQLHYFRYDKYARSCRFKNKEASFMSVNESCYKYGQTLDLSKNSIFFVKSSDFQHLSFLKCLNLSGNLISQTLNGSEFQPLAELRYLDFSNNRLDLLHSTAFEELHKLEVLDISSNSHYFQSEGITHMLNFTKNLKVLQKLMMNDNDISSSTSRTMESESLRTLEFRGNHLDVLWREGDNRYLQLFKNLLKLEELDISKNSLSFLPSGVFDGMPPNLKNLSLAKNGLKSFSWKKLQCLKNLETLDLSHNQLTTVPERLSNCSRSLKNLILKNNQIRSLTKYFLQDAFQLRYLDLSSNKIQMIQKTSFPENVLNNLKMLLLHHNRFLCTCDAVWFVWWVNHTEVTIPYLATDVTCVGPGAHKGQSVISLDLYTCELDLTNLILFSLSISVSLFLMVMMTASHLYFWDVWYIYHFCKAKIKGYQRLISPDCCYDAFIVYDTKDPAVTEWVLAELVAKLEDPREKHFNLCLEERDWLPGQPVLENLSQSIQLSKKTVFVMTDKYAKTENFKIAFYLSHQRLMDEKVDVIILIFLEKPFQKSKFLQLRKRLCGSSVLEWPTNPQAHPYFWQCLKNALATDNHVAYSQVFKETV
Experimental: In this example, the agonistic activity of the compounds of the present application on hTLR7 (human Toll-like receptor 7) and hTLR8 (human Toll-like receptor 8) was assessed; the induction activity of the compounds on human PBMCs for TNF-α and IFN-α production was assessed in human PBMCs (human peripheral blood mononuclear cells).
All compounds were formulated in DMSO into 30 mM stock solutions and preserved at 4° C. The reference compound ([…], Cat. No. tlrl-r848-5) was purchased from InvivoGen and formulated into a 5 mg/mL stock solution in DMSO and preserved in a freezer at −20° C. HEK-Blue hTLR7 and HEK-Blue hTLR8 cell lines were purchased from InvivoGen, and human PBMCs were purchased from Shanghai Saily Biotechnology Co., Ltd. (Cat. No. XFB—HP100B).
The major instruments used in this study were multifunctional microplate reader Flexstation III (Molecular Device), Envision (Perkin Elmer), M2e (Molecular Device), and Echo555 (Labcyte). 2.1 Agonistic activity of compounds on hTLR7 (human Toll-like receptor 7) and hTLR8 (human Toll-like receptor 8)
Compound dilution: The compounds of the present application are diluted in DMSO, for example, to about 15 mM. The reference compound was added to the plates in sequence after dilution. The compounds were serially 3-fold diluted to 10 concentrations and added to 96-well plates in duplicate.
For the negative control wells, DMSO was added at 0.2 μL/well, and the reference compound was added to the positive control wells. The final concentration of DMSO was 0.2%.
Cell plating: When an 80% confluence of HEK Blue hTLR7&8 cells in the culture flask was observed under a microscope, the culture medium was discarded, 10 mL of detection medium was added, and the cells were separated by pipetting. The cells were counted on a cytometer and diluted to 500,000 cells/mL. The cells were plated at 100 μL/50,000 cells/well in the 96-well plates containing the compounds. The compounds and cells were co-incubated at 37° C. in a 5% CO2 incubator for 24 hours.
Compound activity detection: 20 μL of cell supernatant was taken from each well and added to a plate containing QUANTI-Blue™ reagent at 180 μL/well. The plate was incubated at 37° C. for 1 hour, and the absorbance at 650 nm (OD650) was measured on the multifunctional microplate reader Flexstation III.
Compound activity data analysis: The OD650 values were analyzed by GraphPad Prism software and fitted to give dose-response curves of the compounds. The EC50 values of compounds were calculated.

[3] = serial 4-fold dilutions, class symbols

| EC50 [2] [nM] | EC50 ([2]; class symbols) [nM] | Structure (SMILES) | EC50 ([1]; serial 3-fold dilutions) [nM] | EC50 [1, 3] [nM] |
| --- | --- | --- | --- | --- |
| 712 |  | CCCN(OCc1ccc(N)cc1)C(=O)C1=Cc2ccc(-c3cncc(CO)c3)cc2N=C(N)C1 [Compound 15] | 3.02 |  |
|  | > 1000 | CCCN(OCc1ccc(N)cc1)C(=O)C1=Cc2ccc(-c3cncc(C(=O)O)c3)cc2N=C(N)C1 [Compound 32] |  | 50 to 500 |
| 758 |  | CCCN(OCc1ccc(N)cc1)C(=O)C1=Cc2ccc(-c3cccc(S(N)(=O)=O)c3)cc2N=C(N)C1 [Compound 35] | 2.95 |  |
| 1080 |  | CCCN(OCc1ccc(N)cc1)C(=O)C1=Cc2ccc(-c3cncc(S(N)(=O)=O)c3)cc2N=C(N)C1 [Compound 36] | 6.05 |  |
|  | > 1000 | CCCN(OCc1ccc(N)cc1)C(=O)C1=Cc2ccc(C(=O)N3CC(CO)C3)cc2N=C(N)C1 [Compound 37] |  | > 500 |
| 11700 |  | CCCN(OCc1ccc(N)cc1)C(=O)C1=Cc2ccc(C(=O)Nc3cccnc3)cc2N=C(N)C1 [Compound 40] | 1320 |  |
| 2240 |  | CCCN(OCc1ccc(N)cc1)C(=O)C1=Cc2ccc(-c3cccc(S(=O)(=O)N4CC(O)C4)c3)cc2N=C(N)C1 [Compound 41] | 31.1 | 50 to 500 |
|  | > 1000 | CCCN(OCc1ccc(N)cc1)C(=O)C1=Cc2ccc(-c3ccc(C(=O)N4CC[C@@H](O)C4)cc3)cc2N=C(N)C1 [Compound 42] | 48.3 | > 500 |
| 180 |  | CCCN(OCc1ccc(N)cc1)C(=O)C1=Cc2ccc(-c3ccc4c(c3)C(=O)OC4)cc2N=C(N)C1 [Compound 43] | 29.6 |  |
| 1160 |  | NC1=Nc2cc(-c3cncc(CO)c3)ccc2C=C(C(=O)N(CC2CC2)OCc2ccc(N)cc2)C1 [Compound 45] | 7.25 |  |
|  | > 1000 | CCCN(OCc1ccc(N)cc1)C(=O)C1=Cc2ccc(C(=O)N3CCC(O)C3)cc2N=C(N)C1 (centres unmarked) [Compound 46] |  | 50 to 500 |
|  | > 1000 | CCCN(OCc1ccc(N)cc1)C(=O)C1=Cc2ccc(C(=O)N3CCOC(CO)C3)cc2N=C(N)C1 (centres unmarked) [Compound 47] |  | 50 to 500 |
|  | > 1000 | CCCN(OCc1ccc(N)cc1)C(=O)C1=Cc2ccc(C(=O)NCCO)cc2N=C(N)C1 [Compound 48] |  | > 500 |
| 245 |  | CCCN(OCc1ccc(N)cc1)C(=O)C1=Cc2ccc(-c3cncc(Cl)c3)cc2N=C(N)C1 [Compound 49] | 48.2 |  |
| 274 |  | CCCN(OCc1ccc(N)cc1)C(=O)C1=Cc2ccc(-c3cncc(C#N)c3)cc2N=C(N)C1 [Compound 50] | 41.5 |  |
| 428 |  | CCCN(OCc1ccc(N)cc1)C(=O)C1=Cc2ccc(-c3ccc(C#N)nc3)cc2N=C(N)C1 [Compound 51] | 142 |  |
| 355 |  | CCCN(OCc1ccc(N)cc1)C(=O)C1=Cc2ccc(-c3cncc(N)c3)cc2N=C(N)C1 [Compound 52] | 6.58 |  |
|  | 100 to 1000 | CCCN(OCc1ccc(N)cc1)C(=O)C1=Cc2ccc(-c3cncc(C(F)(F)F)c3)cc2N=C(N)C1 [Compound 53] |  | 50 to 500 |
| 528 |  | CCCN(OCc1ccc(N)cc1)C(=O)C1=Cc2ccc(-c3cncc(CN)c3)cc2N=C(N)C1 [Compound 54] | 5.35 |  |
| 685 |  | CCCN(OCc1ccc(N)cc1)C(=O)C1=Cc2ccc(-c3ccc(N4CCOCC4)nc3)cc2N=C(N)C1 [Compound 55] | 43.4 |  |
| 664 |  | CCCN(OCc1ccc(N)cc1)C(=O)C1=Cc2ccc(-c3cncc(S(C)(=O)=O)c3)cc2N=C(N)C1 [Compound 56] | 28.5 |  |
|  | 100 to 1000 | NC1=Nc2cc(-c3cncc(CO)c3)ccc2C=C(C(=O)N(CCC(F)(F)F)OCc2ccc(N)cc2)C1 [Compound 58] |  | 10 to 50 |
|  | 100 to 1000 | CCCN(OCc1ccc(N)cc1Cl)C(=O)C1=Cc2ncc(-c3cncc(CO)c3)cc2N=C(N)C1 [Compound 59] |  | 50 to 500 |
|  | 100 to 1000 | CCCN(OCc1ccc(N)cc1OC)C(=O)C1=Cc2ncc(-c3cncc(CO)c3)cc2N=C(N)C1 [Compound 60] |  | 50 to 500 |

Source: patent publication US20250059141A1, “TLR MODULATOR AND USE THEREOF” (DUALITY BIOLOGICS (SUZHOU) CO., LTD., priority 2021, published 2025)
